The term EC50 denotes the concentration giving half of the maximal effect.

This is an account of results in patent US10093713B2, “GIP-GLP-1 dual agonist compounds and methods” (priority 2013, dated 2018).

One experiment concerns the target T1, human GIP R (Homo sapiens, UniProt P48546).
T1 construct: expressed in transfected cells
T1 sequence (P48546 22-466): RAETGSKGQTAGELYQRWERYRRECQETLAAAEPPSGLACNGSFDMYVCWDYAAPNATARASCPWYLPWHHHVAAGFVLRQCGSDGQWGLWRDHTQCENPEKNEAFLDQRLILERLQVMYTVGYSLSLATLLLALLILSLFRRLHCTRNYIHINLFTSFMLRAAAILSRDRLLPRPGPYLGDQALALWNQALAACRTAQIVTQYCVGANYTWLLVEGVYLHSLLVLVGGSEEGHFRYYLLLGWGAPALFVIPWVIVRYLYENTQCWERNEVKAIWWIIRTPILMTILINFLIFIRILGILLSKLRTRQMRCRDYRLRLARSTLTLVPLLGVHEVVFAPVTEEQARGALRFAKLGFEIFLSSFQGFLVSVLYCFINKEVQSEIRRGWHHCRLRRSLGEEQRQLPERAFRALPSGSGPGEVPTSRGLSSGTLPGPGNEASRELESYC
The experiment can be described thus: Human GIP receptor (GIP R) activity assay, cAMP induction (AlphaScreen) in HEK293 cells. It is filed as cell-based. The settings on record: read-out: hGIP-R cAMP EC50 average value. The method, then: (§1) Human GIP Receptor (GIP R) and GLP-1 Receptor (GLP-1 R) Activity Assay
(§2) In vitro effects of peptide conjugates of the invention were assessed by measuring the induction of cAMP following stimulation of the respective receptor by GIP, GLP1 or analogues of these, as outlined in the invention, using the AlphaSceen® cAMP kit from Perkin-Elmer according to instructions. Briefly, HEK293 cells expressing the human GIP R or GLP-1 R (stable cell lines generated through transfection of the cDNA for human GIP R or GLP-1 and selection of stable clones) were seeded at 30,000 cells/well in 96-well microtiter plates coated with 0.01% poly-L-lysine, and grown for 1 day in culture in 200 μl growth medium (DMEM, 10% FCS, Penicillin (100 IU/ml), Streptomycin (100 μg/ml)). On the day of analysis, growth medium was removed and the cells were washed once with […] Tyrode's buffer (Tyrode's Salts (9.6 g/l), 10 mM HEPES, pH 7.4). […] The Assay buffer was removed and cells are lysed in 80 μl Lysis buffer (0.1% w/v BSA, 5 mM HEPES, 0.3% v/v Tween-20) per well. From each well 10 μl lysed cells was transferred to a 384-well plate and mixed with 15 μl bead-mix (1 Unit/15 μl anti-cAMP Acceptor Beads, 1 Unit/15 μl Donor Beads, and 1 Unit/15 μl Biotinylated cAMP in Assay Buffer). The plates were mixed and incubated in the dark for an hour at room temperature before measuring using an Envision™ plate reader (Perkin-Elmer).
(§3) The resulting cAMP curves were plotted as absolute cAMP concentrations (nM) over log (test compound concentration) and analyzed using the curve fitting program XLfit.
(§4) Parameters calculated to describe both the potency as well as the agonistic activity of each test compound on the receptors were:
(§5) EC50, a concentration resulting in a half-maximal elevation of cAMP levels, reflecting the potency of the test compound.
In general terms: Bead proximity is the source of the signal in Alpha formats.

The next experiment deals with T2, human GLP-1 R (Homo sapiens, UniProt P43220).
T2 construct: expressed in transfected cells
T2 sequence (P43220 24-463): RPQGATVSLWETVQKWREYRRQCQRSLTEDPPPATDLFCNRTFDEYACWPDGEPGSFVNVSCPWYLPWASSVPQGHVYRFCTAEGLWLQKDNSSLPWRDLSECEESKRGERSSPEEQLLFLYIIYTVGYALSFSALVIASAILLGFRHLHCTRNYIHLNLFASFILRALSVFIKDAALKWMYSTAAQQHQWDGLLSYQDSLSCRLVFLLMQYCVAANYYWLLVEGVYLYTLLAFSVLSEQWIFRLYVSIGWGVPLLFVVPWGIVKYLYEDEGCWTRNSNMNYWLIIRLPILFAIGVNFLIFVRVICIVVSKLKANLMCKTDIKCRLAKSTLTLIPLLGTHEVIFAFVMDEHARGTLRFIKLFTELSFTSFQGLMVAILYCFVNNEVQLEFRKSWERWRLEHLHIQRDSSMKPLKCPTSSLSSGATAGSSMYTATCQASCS
The experiment can be described thus: Human GLP-1 receptor (GLP-1 R) activity assay, cAMP induction (AlphaScreen) in HEK293 cells. In kind it is cell-based. The procedure:
as §1, §2, §3, §4, §5

Setting [1] is: Table 2a, secondary assay study.
[2] abbreviates: Table 2a, secondary assay study, read-out: hGLP1-R cAMP EC50 average value.
Where [3] appears, read: Table 2, HEK293 cells expressing human GIP R.
The mark [4] stands for this setting: Table 2, HEK293 cells expressing human GLP-1 R, read-out: hGLP1-R cAMP EC50 average value.

Where two headings read alike, the source gives them in different places. *1 amine or outer side, *2 acyl side, *3 side chain or, on linkers, in order; H or OH if unused. Where a SMILES comes first, the peptide text is derived from it. Side-chain parts run from the residue outwards. [ ]: non-standard residue; d: D form. The star is where a group is joined. C18 diacid = O=C(O)CCCCCCCCCCCCCCCCC(=O)*; γGlu = O=C(O)[C@H](CCC(=O)[*:2])N[*:1]; AEEA = NCCOCCOCC(=O)O; Aib = CC(C)(N)C(=O)O

Turning to `CC[C@H](C)[C@H](NC(=O)[C@H](CO)NC(=O)[C@H](Cc1ccc(O)cc1)NC(=O)[C@H](CC(=O)O)NC(=O)[C@H](CO)NC(=O)[C@@H](NC(=O)[C@H](Cc1ccccc1)NC(=O)[C@@H](NC(=O)CNC(=O)[C@H](CCC(=O)O)NC(=O)C(C)(C)NC(=O)[C@@H](N)Cc1ccc(O)cc1)[C@@H](C)O)[C@@H](C)O)C(=O)N[C@@H](C)C(=O)N[C@@H](CC(C)C)C(=O)N[C@@H](CC(=O)O)C(=O)N[C@@H](CCCCN)C(=O)N[C@@H](CCCCNC(=O)COCCOCCNC(=O)COCCOCCNC(=O)CC[C@H](NC(=O)CCCCCCCCCCCCCCCCCCC(=O)O)C(=O)O)C(=O)N[C@@H](C)C(=O)N[C@@H](CCC(N)=O)C(=O)N[C@@H](CCCNC(=N)N)C(=O)N[C@@H](C)C(=O)N[C@@H](Cc1ccccc1)C(=O)N[C@H](C(=O)N[C@@H](CC(N)=O)C(=O)N[C@@H](Cc1c[nH]c2ccccc12)C(=O)N[C@@H](CC(C)C)C(=O)N[C@H](C(=O)N[C@@H](C)C(=O)NC(C)(C)C(=O)N[C@@H](CCCCN)C(=O)N1CCC[C@H]1C(=O)N[C@@H](CO)C(=O)N[C@@H](CO)C(=O)NCC(=O)N[C@@H](C)C(=O)N1CCC[C@H]1C(=O)N1CCC[C@H]1C(=O)N1CCC[C@H]1C(=O)N[C@@H](CO)C(N)=O)C(C)C)C(C)C` [Compound 16], the EC50 is 8 pM on human GIP R (setting [1]) and 9 pM on human GLP-1 R (setting [2]).

`CC[C@H](C)[C@H](NC(=O)[C@H](CO)NC(=O)[C@H](CC(C)C)NC(=O)[C@H](CC(=O)O)NC(=O)[C@H](CO)NC(=O)[C@@H](NC(=O)[C@H](Cc1ccccc1)NC(=O)[C@@H](NC(=O)CNC(=O)[C@H](CCC(=O)O)NC(=O)C(C)(C)NC(=O)[C@@H](N)Cc1ccc(O)cc1)[C@@H](C)O)[C@@H](C)O)C(=O)N[C@@H](C)C(=O)N[C@@H](CC(C)C)C(=O)N[C@@H](CCC(=O)O)C(=O)N[C@@H](CCCCN)C(=O)N[C@@H](CCCCNC(=O)COCCOCCNC(=O)COCCOCCNC(=O)CC[C@H](NC(=O)CCCCCCCCCCCCCCCCC(=O)O)C(=O)O)C(=O)N[C@@H](C)C(=O)N[C@@H](CCC(N)=O)C(=O)N[C@@H](CCCNC(=N)N)C(=O)N[C@@H](C)C(=O)N[C@@H](Cc1ccccc1)C(=O)N[C@H](C(=O)N[C@@H](CCC(=O)O)C(=O)N[C@@H](Cc1c[nH]c2ccccc12)C(=O)N[C@@H](CC(C)C)C(=O)N[C@@H](CC(C)C)C(=O)N[C@@H](C)C(=O)N[C@@H](CCC(N)=O)C(=O)N[C@@H](CCCCN)C(N)=O)C(C)C` [Compound 17] (H-Y[Aib]EGTFTSDLSIALEKK([AEEA-AEEA-γGlu-C18 diacid])AQRAFVEWLLAQK-NH2): the EC50 on human GIP R (setting [3]) is 11 pM; at human GLP-1 R (setting [4]), 6.2 pM; on human GLP-1 R (Table 3, most comprehensive data, read-out: hGLP-1-R cAMP EC50 average value) it was 6 pM.

As to `CC[C@H](C)[C@H](NC(=O)[C@H](CO)NC(=O)[C@H](Cc1ccc(O)cc1)NC(=O)[C@H](CC(=O)O)NC(=O)[C@H](CO)NC(=O)[C@@H](NC(=O)[C@H](Cc1ccccc1)NC(=O)[C@@H](NC(=O)CNC(=O)[C@H](CCC(=O)O)NC(=O)C(C)(C)NC(=O)[C@@H](N)Cc1ccc(O)cc1)[C@@H](C)O)[C@@H](C)O)C(=O)N[C@@H](C)C(=O)N[C@@H](CC(C)C)C(=O)N[C@@H](CCC(=O)O)C(=O)N[C@@H](CCCCN)C(=O)N[C@@H](CCCCNC(=O)COCCOCCNC(=O)COCCOCCNC(=O)CC[C@H](NC(=O)CCCCCCCCCCCCCCCCC(=O)O)C(=O)O)C(=O)N[C@@H](C)C(=O)N[C@@H](CCC(N)=O)C(=O)N[C@@H](CCCNC(=N)N)C(=O)N[C@@H](C)C(=O)N[C@@H](Cc1ccccc1)C(=O)N[C@H](C(=O)N[C@@H](CCC(=O)O)C(=O)N[C@@H](Cc1c[nH]c2ccccc12)C(=O)N[C@@H](CC(C)C)C(=O)N[C@@H](CC(C)C)C(=O)N[C@@H](C)C(=O)N[C@@H](CCC(N)=O)C(=O)N[C@@H](CCCCN)C(N)=O)C(C)C` [Compound 17] (H-Y[Aib]EGTFTSDYSIALEKK([AEEA-AEEA-γGlu-C18 diacid])AQRAFVEWLLAQK-NH2), the EC50 on human GIP R (setting [1]) came out at 8 pM; on human GLP-1 R (setting [2]), 15 pM.

On to `CC[C@H](C)[C@H](NC(=O)[C@H](CO)NC(=O)[C@H](CC(C)C)NC(=O)[C@H](CC(=O)O)NC(=O)[C@H](CO)NC(=O)[C@@H](NC(=O)[C@H](Cc1ccccc1)NC(=O)[C@@H](NC(=O)CNC(=O)[C@H](CCC(=O)O)NC(=O)C(C)(C)NC(=O)[C@@H](N)Cc1ccc(O)cc1)[C@@H](C)O)[C@@H](C)O)C(=O)N[C@@H](C)C(=O)N[C@@H](CC(C)C)C(=O)N[C@@H](CCC(=O)O)C(=O)N[C@@H](CCCCN)C(=O)N[C@@H](CCCCNC(=O)COCCOCCNC(=O)COCCOCCNC(=O)CC[C@H](NC(=O)CCCCCCCCCCCCCCCCC(=O)O)C(=O)O)C(=O)N[C@@H](C)C(=O)N[C@@H](CCC(N)=O)C(=O)N[C@@H](CCCNC(=N)N)C(=O)N[C@@H](C)C(=O)N[C@@H](Cc1ccccc1)C(=O)N[C@H](C(=O)N[C@@H](CCC(=O)O)C(=O)N[C@@H](Cc1c[nH]c2ccccc12)C(=O)N[C@@H](CC(C)C)C(=O)N[C@@H](CC(C)C)C(=O)N[C@@H](C)C(=O)N[C@@H](CCC(N)=O)C(=O)N[C@@H](CCCCN)C(N)=O)C(C)C` [Compound 18] (H-Y[Aib]EGTFTSDLSIALEKK([AEEA-AEEA-γGlu-C18 diacid])AQRAFVEWLLAQK-NH2), for which the EC50 came out at 11 pM on human GIP R (setting [1]) and 6 pM on human GLP-1 R (setting [2]).

On to `CC[C@H](C)[C@H](NC(=O)[C@H](CO)NC(=O)[C@H](Cc1ccc(O)cc1)NC(=O)[C@H](CC(=O)O)NC(=O)[C@H](CO)NC(=O)[C@@H](NC(=O)[C@H](Cc1ccccc1)NC(=O)[C@@H](NC(=O)CNC(=O)[C@H](CCC(=O)O)NC(=O)C(C)(C)NC(=O)[C@@H](N)Cc1ccc(O)cc1)[C@@H](C)O)[C@@H](C)O)C(=O)N[C@@H](Cc1ccc(O)cc1)C(=O)N[C@@H](CC(C)C)C(=O)N[C@@H](CCC(=O)O)C(=O)N[C@@H](CCCCN)C(=O)N[C@@H](CCCCNC(=O)COCCOCCNC(=O)COCCOCCNC(=O)CC[C@H](NC(=O)CCCCCCCCCCCCCCCCC(=O)O)C(=O)O)C(=O)N[C@@H](C)C(=O)N[C@@H](CCC(N)=O)C(=O)N[C@@H](CCCNC(=N)N)C(=O)N[C@@H](C)C(=O)N[C@@H](Cc1ccccc1)C(=O)N[C@H](C(=O)N[C@@H](CCC(=O)O)C(=O)N[C@@H](Cc1c[nH]c2ccccc12)C(=O)N[C@@H](CC(C)C)C(=O)N[C@@H](CC(C)C)C(=O)N[C@@H](CCCNC(=N)N)C(=O)N[C@@H](C)C(N)=O)C(C)C` [Compound 18] (H-Y[Aib]EGTFTSDYSIYLEKK([AEEA-AEEA-γGlu-C18 diacid])AQRAFVEWLLRA-NH2), for which the figures for the EC50 on human GIP R (setting [3]) and at human GLP-1 R (setting [4]) were 14 pM and 22 pM, respectively.

With `CC[C@H](C)[C@H](NC(=O)[C@H](CO)NC(=O)[C@H](Cc1ccc(O)cc1)NC(=O)[C@H](CC(=O)O)NC(=O)[C@H](CO)NC(=O)[C@@H](NC(=O)[C@H](Cc1ccccc1)NC(=O)[C@@H](NC(=O)CNC(=O)[C@H](CCC(=O)O)NC(=O)C(C)(C)NC(=O)[C@@H](N)Cc1ccc(O)cc1)[C@@H](C)O)[C@@H](C)O)C(=O)N[C@@H](C)C(=O)N[C@@H](CC(C)C)C(=O)N[C@@H](CC(=O)O)C(=O)N[C@@H](CCCCN)C(=O)N[C@@H](CCCCNC(=O)COCCOCCNC(=O)COCCOCCNC(=O)CC[C@H](NC(=O)CCCCCCCCCCCCCCCCC(=O)O)C(=O)O)C(=O)N[C@@H](C)C(=O)N[C@@H](CCC(N)=O)C(=O)N[C@@H](CCCNC(=N)N)C(=O)N[C@@H](C)C(=O)N[C@@H](Cc1ccccc1)C(=O)N[C@H](C(=O)N[C@@H](CC(N)=O)C(=O)N[C@@H](Cc1c[nH]c2ccccc12)C(=O)N[C@@H](CC(C)C)C(=O)N[C@H](C(=O)N[C@@H](C)C(=O)NC(C)(C)C(=O)N[C@@H](CCCCN)C(N)=O)C(C)C)C(C)C` [Compound 19] (H-Y[Aib]EGTFTSDYSIALDKK([AEEA-AEEA-γGlu-C18 diacid])AQRAFVNWLVA[Aib]K-NH2), the EC50 at human GIP R (setting [3]) worked out at 7.3 pM; on human GIP R (Table 3, most comprehensive data), 7 pM; at human GLP-1 R (setting [4]) it was 14 pM.
